Species on record: Rattus norvegicus
Experiment: DrugMatrix - Regimen: Daily Repeat
Type: toxicity, organism-based, Sprague-Dawley
Parameters: regimen Daily Repeat, gender Male, age 6-8 weeks
Conditions: in vivo, po, route oral GAVAGE, vehicle .5 % CMC; for ABSOLUTE BASOPHIL / ABSOLUTE EOSINOPHIL / ABSOLUTE LYMPHOCYTE / ABSOLUTE MONOCYTE / ABSOLUTE SEGMENTED NEUTROPHIL / BASOPHIL / EOSINOPHIL / ERYTHROCYTE COUNT / HEMATOCRIT / HEMOGLOBIN / LEUKOCYTE COUNT / LYMPHOCYTE / MEAN CORPUSCULAR HEMOGLOBIN / MEAN CORPUSCULAR HEMOGLOBIN CONCENTRATION / MEAN CORPUSCULAR VOLUME / MONOCYTE / NEUTROPHIL / NUCLEATED RED BLOOD CELLS / PLATELET COUNT: tissue Blood; for ALANINE AMINOTRANSFERASE / ALBUMIN / ALKALINE PHOSPHATASE / ASPARTATE AMINOTRANSFERASE / BLOOD UREA NITROGEN / CARBON DIOXIDE / CHLORIDE / CHOLESTEROL / CREATINE PHOSPHOKINASE / CREATININE / GLUCOSE / LACTATE DEHYDROGENASE / LIPASE / PHOSPHORUS / POTASSIUM / SODIUM / TOTAL BILIRUBIN / TOTAL PROTEIN / URIC ACID: tissue Plasma
[1] = 10 mg/kg, 72 h, dose level Low, time 3 day
[2] = 10 mg/kg, 120 h, dose level Low, time 5 day
[3] = 350 mg/kg, 72 h, dose level High, time 3 day

Which results are given for `CCC1(c2ccc(N)cc2)CCC(=O)NC1=O` (centres undefined) [AMINOGLUTETHIMIDE]?
ABSOLUTE BASOPHIL [1]: 0 CELLS/uL; ABSOLUTE EOSINOPHIL [1]: 0 CELLS/uL; ABSOLUTE LYMPHOCYTE [1]: 11710.67 CELLS/uL; ABSOLUTE MONOCYTE [1]: 267.33 CELLS/uL; ABSOLUTE SEGMENTED NEUTROPHIL [1]: 2622 CELLS/uL; BASOPHIL [1]: 0%; EOSINOPHIL [1]: 0%; ERYTHROCYTE COUNT [1]: 5.37 x10E6/uL; HEMATOCRIT [1]: 34.23%; HEMOGLOBIN [1]: 13.47 G/DL; LEUKOCYTE COUNT [1]: 14.6 x10E3/uL; LYMPHOCYTE [1]: 80.33%; MEAN CORPUSCULAR HEMOGLOBIN [1]: 25.1 pg; MEAN CORPUSCULAR HEMOGLOBIN CONCENTRATION [1]: 39.33 G/DL; MEAN CORPUSCULAR VOLUME [1]: 63.77 fL; MONOCYTE [1]: 1.67%; NEUTROPHIL [1]: 18%; NUCLEATED RED BLOOD CELLS [1]: 0 /100WBC; PLATELET COUNT [1]: 1364.33 x10E3/uL; ALANINE AMINOTRANSFERASE [1]: 54.67 u/L; ALBUMIN [1]: 4.07 G/DL; ALKALINE PHOSPHATASE [1]: 367 u/L; ASPARTATE AMINOTRANSFERASE [1]: 87.33 u/L; BLOOD UREA NITROGEN [1]: 17 mg/dL; CARBON DIOXIDE [1]: 26 mmol/L; CHLORIDE [1]: 102 MEQ/L; CHOLESTEROL [1]: 69.33 mg/dL; CREATINE PHOSPHOKINASE [1]: 357.33 u/L; CREATININE [1]: 0.16 mg/dL; GLUCOSE [1]: 160 mg/dL; LACTATE DEHYDROGENASE [1]: 241.67 u/L; LIPASE [1]: 9.33 u/L; PHOSPHORUS [1]: 13 mg/dL; POTASSIUM [1]: 6.52 MEQ/L; SODIUM [1]: 143.27 MEQ/L; TOTAL BILIRUBIN [1]: 0.2 mg/dL; TOTAL PROTEIN [1]: 5.67 G/DL; URIC ACID [1]: 1.83 mg/dL; ABSOLUTE BASOPHIL [2]: 0 CELLS/uL; ABSOLUTE EOSINOPHIL [2]: 0 CELLS/uL; ABSOLUTE LYMPHOCYTE [2]: 14655 CELLS/uL; ABSOLUTE MONOCYTE [2]: 54.33 CELLS/uL; ABSOLUTE SEGMENTED NEUTROPHIL [2]: 1457.33 CELLS/uL; BASOPHIL [2]: 0%; EOSINOPHIL [2]: 0%; ERYTHROCYTE COUNT [2]: 5.82 x10E6/uL; HEMATOCRIT [2]: 35.6%; HEMOGLOBIN [2]: 14.1 G/DL; LEUKOCYTE COUNT [2]: 16.17 x10E3/uL; LYMPHOCYTE [2]: 90.67%; MEAN CORPUSCULAR HEMOGLOBIN [2]: 24.23 pg; MEAN CORPUSCULAR HEMOGLOBIN CONCENTRATION [2]: 39.67 G/DL; MEAN CORPUSCULAR VOLUME [2]: 61.17 fL; MONOCYTE [2]: 0.33%; NEUTROPHIL [2]: 9%; NUCLEATED RED BLOOD CELLS [2]: 0 /100WBC; PLATELET COUNT [2]: 1044 x10E3/uL; ALANINE AMINOTRANSFERASE [2]: 56 u/L; ALBUMIN [2]: 4.33 G/DL; ALKALINE PHOSPHATASE [2]: 463 u/L; ASPARTATE AMINOTRANSFERASE [2]: 91.67 u/L; BLOOD UREA NITROGEN [2]: 16.67 mg/dL; CARBON DIOXIDE [2]: 27 mmol/L; CHLORIDE [2]: 100 MEQ/L; CHOLESTEROL [2]: 67 mg/dL; CREATINE PHOSPHOKINASE [2]: 282 u/L; CREATININE [2]: 0.2 mg/dL; GLUCOSE [2]: 155.67 mg/dL; LACTATE DEHYDROGENASE [2]: 347.67 u/L; LIPASE [2]: 12.33 u/L; PHOSPHORUS [2]: 11.8 mg/dL; POTASSIUM [2]: 6.27 MEQ/L; SODIUM [2]: 142.47 MEQ/L; TOTAL BILIRUBIN [2]: 0.17 mg/dL; TOTAL PROTEIN [2]: 5.87 G/DL; URIC ACID [2]: 1.8 mg/dL; ABSOLUTE BASOPHIL [3]: 0 CELLS/uL; ABSOLUTE EOSINOPHIL [3]: 0 CELLS/uL; ABSOLUTE LYMPHOCYTE [3]: 12308.33 CELLS/uL; ABSOLUTE MONOCYTE [3]: 135 CELLS/uL; ABSOLUTE SEGMENTED NEUTROPHIL [3]: 1890 CELLS/uL; BASOPHIL [3]: 0%; EOSINOPHIL [3]: 0%; ERYTHROCYTE COUNT [3]: 6.41 x10E6/uL; HEMATOCRIT [3]: 37.93%; HEMOGLOBIN [3]: 15.13 G/DL; LEUKOCYTE COUNT [3]: 14.33 x10E3/uL; LYMPHOCYTE [3]: 84.67%; MEAN CORPUSCULAR HEMOGLOBIN [3]: 23.57 pg; MEAN CORPUSCULAR HEMOGLOBIN CONCENTRATION [3]: 39.87 G/DL; MEAN CORPUSCULAR VOLUME [3]: 59.1 fL; MONOCYTE [3]: 1%; NEUTROPHIL [3]: 14.33%; NUCLEATED RED BLOOD CELLS [3]: 0 /100WBC; PLATELET COUNT [3]: 1180.67 x10E3/uL; ALANINE AMINOTRANSFERASE [3]: 78.33 u/L; ALBUMIN [3]: 3.73 G/DL; ALKALINE PHOSPHATASE [3]: 251.67 u/L; ASPARTATE AMINOTRANSFERASE [3]: 137.67 u/L; BLOOD UREA NITROGEN [3]: 12 mg/dL; CARBON DIOXIDE [3]: 27.33 mmol/L; CHLORIDE [3]: 100 MEQ/L; CHOLESTEROL [3]: 103.67 mg/dL; CREATINE PHOSPHOKINASE [3]: 398 u/L; CREATININE [3]: 0.14 mg/dL; GLUCOSE [3]: 120 mg/dL; LACTATE DEHYDROGENASE [3]: 202.67 u/L; LIPASE [3]: 10.33 u/L; PHOSPHORUS [3]: 12.03 mg/dL; POTASSIUM [3]: 5.62 MEQ/L; SODIUM [3]: 144.37 MEQ/L; TOTAL BILIRUBIN [3]: 0.13 mg/dL; TOTAL PROTEIN [3]: 5.23 G/DL; URIC ACID [3]: 1.73 mg/dL
